{"source": "patent US12263155B2", "about": "“Combinations of monoamine oxidase inhibitors and serotonin receptor agonists and their therapeutic use” (Remedi, Inc., priority 2022, dated 2025)", "key": {"rat liver MAO-A": {"target": "T1, rat liver MAO-A (Rattus norvegicus, UniProt P21396)", "T1 construct": "from tissue; host or cells: rat liver", "T1 sequence (P21396 1-526)": "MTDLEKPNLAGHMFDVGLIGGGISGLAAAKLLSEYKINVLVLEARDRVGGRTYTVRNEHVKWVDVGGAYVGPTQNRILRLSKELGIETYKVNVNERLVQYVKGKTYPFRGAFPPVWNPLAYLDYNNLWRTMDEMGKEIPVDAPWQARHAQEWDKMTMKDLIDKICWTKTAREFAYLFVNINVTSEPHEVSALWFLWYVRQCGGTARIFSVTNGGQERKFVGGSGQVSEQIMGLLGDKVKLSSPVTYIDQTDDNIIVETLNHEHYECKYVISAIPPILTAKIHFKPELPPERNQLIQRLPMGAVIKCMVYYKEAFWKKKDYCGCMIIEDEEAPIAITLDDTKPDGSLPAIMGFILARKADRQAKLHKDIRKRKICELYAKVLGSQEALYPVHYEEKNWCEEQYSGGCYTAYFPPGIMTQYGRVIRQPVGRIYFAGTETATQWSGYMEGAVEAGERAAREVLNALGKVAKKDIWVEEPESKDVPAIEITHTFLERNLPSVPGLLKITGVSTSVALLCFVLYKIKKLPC", "experiment": "In vitro inhibition of rat liver MAO-A", "type": "biochemical", "experimental": "[…] The P2 fraction was prepared and was stored frozen until being thawed for use on the day of assay. Final concentrations of 50 μM [^14C]-serotonin (5-HT) and 10 μM [^14C]-phenylethylamine (PEA) were employed as specific substrates for MAO-A and MAO-B, respectively. Test compound inhibition was based on competition for oxidation of these radio-labeled substrates. MAO-A assay specificity was enhanced by inclusion of 0.1 μM deprenyl to prevent substrate oxidation by MAO-B. Likewise, MAO-B assays included 0.1 μM clorgyline to block MAO-A activity. […] Inhibition of enzymatic activities was expressed as IC50 and as the Ki, which was calculated using the Cheng-Prusoff equation."}, "Oxidase MAO-B Peripheral": {"target": "T2, Oxidase MAO-B Peripheral (Rattus norvegicus, UniProt P19643)", "T2 construct": "purchased NovaScreen", "T2 sequence (P19643 1-520)": "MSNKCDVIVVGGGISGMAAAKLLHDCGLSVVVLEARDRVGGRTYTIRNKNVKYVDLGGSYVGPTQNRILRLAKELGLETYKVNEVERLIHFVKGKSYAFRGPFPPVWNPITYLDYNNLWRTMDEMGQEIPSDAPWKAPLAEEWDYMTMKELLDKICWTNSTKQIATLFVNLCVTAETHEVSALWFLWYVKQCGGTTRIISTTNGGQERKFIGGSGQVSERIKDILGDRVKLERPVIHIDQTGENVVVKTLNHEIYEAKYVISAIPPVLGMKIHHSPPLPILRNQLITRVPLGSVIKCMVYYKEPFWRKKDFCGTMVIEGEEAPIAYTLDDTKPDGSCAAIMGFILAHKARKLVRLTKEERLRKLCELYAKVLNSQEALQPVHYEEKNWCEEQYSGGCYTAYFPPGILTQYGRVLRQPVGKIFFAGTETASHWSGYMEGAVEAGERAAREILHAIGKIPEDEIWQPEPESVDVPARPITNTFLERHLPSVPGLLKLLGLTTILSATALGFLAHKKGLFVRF", "experiment": "NovaScreen ligand-binding screen, MAO-B", "conditions": "10.0 nM and 100 nM", "experimental": "Methods: Investigational drug candidates CX157 were analyzed in NovaScreen's bank of ligand-binding reactions to test for specificity. CX157 was screened at concentrations of both 10.0 nM and 100 nM as potential competitors in binding reactions involving nine classes containing 69 binding sites. The following binding reactions are tested: Adenosine Non-selective, Adrenergic Alpha 1 Non-selective, Adrenergic Alpha 2 Non-selective, Adrenergic Beta Non-selective, Dopamine Transporter, Dopamine Non-selective, GABA A Agonist Site, GABA A BDZ alpha 1 site, GABA B, Glutamate AMPA Site (Ionotropic), Glutamate Kainate Site (Ionotropic), Glutamate NMDA Agonist Site (Ionotropic), Glutamate NMDA Glycine (Stry-insens Site) (Ionotrophic), Glycine Strychnine-sensitive, Histamine H1, Histamine H2, Histamine H3, Melatonin Non-selective, Muscarinic M1 (hr), Muscarinic M2 (hr), Muscarinic Non-selective Central, Muscarinic Non-selective Peripheral, Nicotinic (α-BnTx insensitive) Neuronal, Norepinephrine Transporter, Opioid Non-selective, Orphanin (hr), Serotonin Transporter, Serotonin Non-selective, Sigma Non-selective, Estrogen, Testosterone (cytosolic), Calcium Channel Type L (Dihydropyridine Site), Calcium Channel Type N, Potassium Channel ATP-Sensitive, Potassium Channel Ca2+ Act. VI, Potassium Channel I[Kr]"}}}
{"molecule": "O=S1(=O)c2ccc(F)cc2Oc2cc(OCC(F)(F)F)ccc21", "note": "[CX157, 3-fluoro-7(2,2,2-trifluorethoxy)phenoxathiine-10,10-dioxide]", "values": [{"measurement": "Ki for CX157/Ki for RO-41-1049", "setting": "rat liver MAO-A; Liver MAO-A", "value": 0.126}, {"measurement": "IC50", "setting": "rat liver MAO-A; rat liver, 50 μM [14C]-5-HT", "value": 2.22, "unit": "nM"}, {"measurement": "Ki", "setting": "rat liver MAO-A; rat liver, Cheng-Prusoff", "value": 0.91, "unit": "nM"}, {"measurement": "binding to MAO-B", "setting": "Oxidase MAO-B Peripheral", "value": "did not bind to MAO-B"}]}
